The source of these data is patent publication US12655127B2, “Fused ring compound as Wee-1 inhibitor” (WIGEN BIOMEDICINE TECHNOLOGY (SHANGHAI) CO., LTD., priority 2021, dated 2026).

The assay concerns the target recombinant protein Wee-1 (Homo sapiens, UniProt P30291). Nature of the assay: Inhibition of enzymatic activity of recombinant protein Wee-1 (HTRF). In kind it is biochemical. Here is the method: The inhibitory effect of the compounds on the enzyme activity of recombinant protein Wee-1 was determined by HTRF. The procedures are as follows:
After DMSO or serially diluted compounds (up to 200 nM, 1:5 serially diluted) and recombinant proteins were co-incubated in a kinase buffer at 37° C. for 30 min Fluorescein-PolyGAT and ATP were added, and then the reaction was started by the addition of a substrate. After incubation at room temperature for 90 min, an antibody and a detection solution were added, and after further incubation at room temperature for 60 min, fluorescence values were detected (excitation wavelength: 340 nm, emission wavelengths: 495 and 520 nm). The 520 nm/495 nm fluorescence intensity ratio value was calculated, and compared with that of the DMSO group, and then the inhibition percentages and IC50 values of the compounds were calculated.
Background: TR-FRET usually uses a lanthanide donor and a delayed reading to cut background.

Chain of recombinant protein Wee-1 (P30291 whole entry): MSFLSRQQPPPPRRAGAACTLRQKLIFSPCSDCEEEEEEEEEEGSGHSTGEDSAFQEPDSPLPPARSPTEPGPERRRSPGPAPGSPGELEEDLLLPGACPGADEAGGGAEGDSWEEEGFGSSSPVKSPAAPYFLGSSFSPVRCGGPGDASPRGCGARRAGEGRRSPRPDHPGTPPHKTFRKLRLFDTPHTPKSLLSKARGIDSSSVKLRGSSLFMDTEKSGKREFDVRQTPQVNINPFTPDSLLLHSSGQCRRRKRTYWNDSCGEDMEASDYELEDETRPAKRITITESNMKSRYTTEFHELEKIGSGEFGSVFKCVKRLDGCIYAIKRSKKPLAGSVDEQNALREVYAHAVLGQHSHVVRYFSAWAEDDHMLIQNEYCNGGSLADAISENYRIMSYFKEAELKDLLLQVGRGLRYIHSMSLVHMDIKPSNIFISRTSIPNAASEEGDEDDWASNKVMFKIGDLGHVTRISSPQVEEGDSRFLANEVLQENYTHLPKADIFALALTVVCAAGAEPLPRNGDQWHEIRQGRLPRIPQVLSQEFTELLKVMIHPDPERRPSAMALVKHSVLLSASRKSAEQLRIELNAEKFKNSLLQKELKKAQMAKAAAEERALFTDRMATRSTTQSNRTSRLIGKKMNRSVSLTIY

A word on the IC50: it is the concentration that inhibits the measured activity by half. Regarding `CN1Cc2cc(Nc3ncc(C#N)c(Nc4cccc(P(C)(C)=O)n4)n3)cc3c2[C@H](CCC3)C1` (single isomer, unassigned) [Compound 138], the IC50 is at most 10 nM.
The same measure for `CN1Cc2cc(Nc3ncc(C#N)c(Nc4cccc(P(C)(C)=O)n4)n3)cc3c2[C@@H](CCC3)C1` (single isomer, unassigned) [Compound 139]: at most 10 nM; for `CCN1Cc2cc(Nc3ncc(C#N)c(Nc4cccc(N=S(C)(C)=O)n4)n3)cc3c2C(CCC3)C1` (stereo not drawn) [Compound 7]: at most 10 nM.
For `CCN1Cc2cc(Nc3ncc(C#N)c(Nc4cccc(N=S(C)(C)=O)n4)n3)cc3c2[C@H](CCC3)C1` [Compound 8] the value was at most 10 nM; for `CCN1Cc2cc(Nc3ncc(C#N)c(Nc4cccc(N=S(C)(C)=O)n4)n3)cc3c2[C@@H](CCC3)C1` [Compound 9], at most 10 nM.
`CC(C)N1Cc2cc(Nc3ncc(C#N)c(Nc4cccc(N=S(C)(C)=O)n4)n3)cc3c2C(CCC3)C1` (stereo not drawn) [Compound 10]: the IC50 was at most 10 nM.
For `CC(C)N1Cc2cc(Nc3ncc(C#N)c(Nc4cccc(N=S(C)(C)=O)n4)n3)cc3c2[C@H](CCC3)C1` [Compound 11] the value was at most 10 nM; for `CC(C)N1Cc2cc(Nc3ncc(C#N)c(Nc4cccc(N=S(C)(C)=O)n4)n3)cc3c2[C@@H](CCC3)C1` [Compound 12], at most 10 nM; for `CS(C)(=O)=Nc1cccc(Nc2nc(Nc3cc4c5c(c3)CN(C3CC3)CC5CCC4)ncc2C#N)n1` (stereo not drawn) [Compound 13], at most 10 nM.
For `CS(C)(=O)=Nc1cccc(Nc2nc(Nc3cc4c5c(c3)CN(C3CC3)C[C@H]5CCC4)ncc2C#N)n1` [Compound 14] the value was at most 10 nM; for `CS(C)(=O)=Nc1cccc(Nc2nc(Nc3cc4c5c(c3)CN(C3CC3)C[C@@H]5CCC4)ncc2C#N)n1` [Compound 15], at most 10 nM; for `CS(C)(=O)=Nc1cccc(Nc2nc(Nc3cc4c5c(c3)CN(CCO)CC5CCC4)ncc2C#N)n1` (stereo not drawn) [Compound 16], at most 10 nM.
For `CN(C)CCN1Cc2cc(Nc3ncc(C#N)c(Nc4cccc(N=S(C)(C)=O)n4)n3)cc3c2C(CCC3)C1` (stereo not drawn) [Compound 17] the value was at most 10 nM.
`CS(C)(=O)=Nc1cccc(Nc2nc(Nc3cc4c5c(c3)CN(CC3CC3)CC5CCC4)ncc2C#N)n1` (stereo not drawn) [Compound 18]: the concentration for half-maximal inhibition (IC50) was at most 10 nM.
For `CN1CC2CCCc3cc(Nc4ncc(C#N)c(Nc5cccc(N=S(C)(C)=O)n5)n4)cc(c32)C12CC2` (stereo not drawn) [Compound 19] the value was at most 10 nM; for `CN1CC2CCCc3cc(Nc4ncc(C#N)c(Nc5cccc(N=S(C)(C)=O)n5)n4)cc(c32)C1(C)C` (stereo not drawn) [Compound 20], at most 10 nM.
As for `CN1C[C@H]2CCCc3cc(Nc4ncc(C#N)c(Nc5cccc(N=S(C)(C)=O)n5)n4)cc(c32)C1(C)C` [Compound 21], the concentration for half-maximal inhibition (IC50) is at most 10 nM.
For `CN1C[C@@H]2CCCc3cc(Nc4ncc(C#N)c(Nc5cccc(N=S(C)(C)=O)n5)n4)cc(c32)C1(C)C` [Compound 22] the value was at most 10 nM; for `CN1Cc2cc(Nc3ncc(C#N)c(Nc4cccc(N=S(C)(C)=O)n4)n3)cc3c2C(CCC3)C12CC2` (stereo not drawn) [Compound 23], at most 10 nM.
`CN1Cc2cc(Nc3ncc(C#N)c(Nc4cccc(N=S(C)(C)=O)n4)n3)cc3c2[C@H](CCC3)C1(C)C` [Compound 24]: the IC50 is at most 10 nM.
For `CN1Cc2cc(Nc3ncc(C#N)c(Nc4cccc(N=S(C)(C)=O)n4)n3)cc3c2[C@@H](CCC3)C1(C)C` [Compound 25] the value was at most 10 nM.
For `CN1Cc2cc(Nc3ncc(C#N)c(Nc4cccc(N=S(C)(C)=O)n4)n3)cc3c2C(C1)CC1(CC1)C3` (stereo not drawn) [Compound 26] the value was at most 10 nM; for `CN1Cc2cc(Nc3ncc(C#N)c(Nc4cccc(N=S(C)(C)=O)n4)n3)cc3c2C(C1)CC(C)(C)C3` (stereo not drawn) [Compound 27], at most 10 nM; for `CN1Cc2cc(Nc3ncc(C#N)c(Nc4cccc(N=S(C)(C)=O)n4)n3)cc3c2C(C1)CC(F)(F)C3` (stereo not drawn) [Compound 28], at most 10 nM.
The same measure for `CN1Cc2cc(Nc3ncc(C#N)c(Nc4cccc(N=S(C)(C)=O)n4)n3)cc3c2C(C1)C1(CC3)CC1` (stereo not drawn) [Compound 29]: at most 10 nM.
Turning to `CN1Cc2cc(Nc3ncc(C#N)c(Nc4cccc(N=S(C)(C)=O)n4)n3)cc3c2C(C1)C(C)(C)CC3` (stereo not drawn) [Compound 30], the IC50 is at most 10 nM.
Take `CN1Cc2cc(Nc3ncc(C#N)c(Nc4cccc(N=S(C)(C)=O)n4)n3)cc3c2C(C1)C(F)(F)CC3` (stereo not drawn) [Compound 31]: the IC50 was at most 10 nM.
For `CN1Cc2cc(Nc3ncc(C#N)c(Nc4cccc(N=S(C)(C)=O)n4)n3)cc3c2C(CCC32CC2)C1` (stereo not drawn) [Compound 32] the value was at most 10 nM; for `CN1Cc2cc(Nc3ncc(C#N)c(Nc4cccc(N=S(C)(C)=O)n4)n3)cc3c2C(CCC3(C)C)C1` (stereo not drawn) [Compound 33], at most 10 nM.
As for `CN1Cc2cc(Nc3ncc(C#N)c(Nc4cccc(N=S(C)(C)=O)n4)n3)cc3c2C(CCC3(F)F)C1` (stereo not drawn) [Compound 34], the IC50 is at most 10 nM.
Regarding `CN1Cc2cc(Nc3ncc(C#N)c(Nc4cccc(N=S(C)(C)=O)n4)n3)cc3c2C(CC=C3)C1` (stereo not drawn) [Compound 35], the half-maximal inhibitory concentration (IC50) is at most 10 nM.
`CN1Cc2cc(Nc3ncc(C#N)c(Nc4cccc(N=S(C)(C)=O)n4)n3)cc3c2C(C=CC3)C1` (stereo not drawn) [Compound 36]: the IC50 is at most 10 nM.
For `CN1Cc2cc(Nc3ncc(C#N)c(Nc4cccc(N=S(C)(C)=O)n4)n3)cc3c2C(CC2CC32)C1` (stereo not drawn) [Compound 37] the value was at most 10 nM.
For `CN1Cc2cc(Nc3ncc(C#N)c(Nc4cccc(N=S(C)(C)=O)n4)n3)cc3c2C(C1)C1CC1C3` (stereo not drawn) [Compound 38] the value was at most 10 nM.
Take `CN1Cc2cc(Nc3ncc(C#N)c(Nc4cccc(N=S(C)(C)=O)n4)n3)cc3c2C2(CC2CC3)C1` (stereo not drawn) [Compound 39]: the IC50 is at most 10 nM.
On to `CN1Cc2nc(Nc3ncc(C#N)c(Nc4cccc(N=S(C)(C)=O)n4)n3)cc3c2C(CCC3)C1` (stereo not drawn) [Compound 40], for which the 50% inhibitory concentration (IC50) is at most 10 nM.
`Cc1c(Nc2ncc(C#N)c(Nc3cccc(N=S(C)(C)=O)n3)n2)cc2c3c1CN(C)CC3CCC2` (stereo not drawn) [Compound 41]: the half-inhibitory concentration (IC50) is at most 10 nM.
For `CN1Cc2c3c(cc(Nc4ncc(C#N)c(Nc5cccc(N=S(C)(C)=O)n5)n4)c2C2CC2)CCCC3C1` (stereo not drawn) [Compound 42] the value was at most 10 nM; for `CN1Cc2c(F)c(Nc3ncc(C#N)c(Nc4cccc(N=S(C)(C)=O)n4)n3)cc3c2C(CCC3)C1` (stereo not drawn) [Compound 43], at most 10 nM; for `COc1c(Nc2ncc(C#N)c(Nc3cccc(N=S(C)(C)=O)n3)n2)cc2c3c1CN(C)CC3CCC2` (stereo not drawn) [Compound 44], at most 10 nM.
The same measure for `CN1Cc2cc(Nc3ncc(C#N)c(Nc4cccc(N=S(C)(C)=O)n4)n3)nc3c2C(CCC3)C1` (stereo not drawn) [Compound 45]: at most 10 nM; for `Cc1c(Nc2ncc(C#N)c(Nc3cccc(N=S(C)(C)=O)n3)n2)cc2c3c1CCCC3CN(C)C2` (stereo not drawn) [Compound 46]: at most 10 nM.
The same measure for `CN1Cc2cc(Nc3ncc(C#N)c(Nc4cccc(N=S(C)(C)=O)n4)n3)c(C3CC3)c3c2C(CCC3)C1` (stereo not drawn) [Compound 47]: at most 10 nM; for `CN1Cc2cc(Nc3ncc(C#N)c(Nc4cccc(N=S(C)(C)=O)n4)n3)c(F)c3c2C(CCC3)C1` (stereo not drawn) [Compound 48]: at most 10 nM.
Turning to `CN1Cc2cc(Nc3ncc(C#N)c(Nc4cccc(N=S(C)(C)=O)n4)n3)cc3c2[C@H](CC3)C1` [Compound 51], the IC50 lay within 10 to 50 nM.
